Experimental data reported in patent US9815851B2, “Pyrrolo carboxamides as modulators of orphan nuclear receptor RAR-related orphan receptor-gamma (RORγ, NR1F3) activity and for the treatment of chronic inflammatory and autoimmune diseases” (PHENEX PHARMACEUTICALS AG, priority 2011, dated 2017).
Like-named read-outs stand apart in the source and are kept apart here.

Tests used:
[1] = biological target: T1, RORγ (UniProt P51449); assay: RORγ Gal4 Reporter Gene Assay in 293T cells (firefly and renilla luciferase); assay type: cell-based, human
T1 sequence (P51449 1-518): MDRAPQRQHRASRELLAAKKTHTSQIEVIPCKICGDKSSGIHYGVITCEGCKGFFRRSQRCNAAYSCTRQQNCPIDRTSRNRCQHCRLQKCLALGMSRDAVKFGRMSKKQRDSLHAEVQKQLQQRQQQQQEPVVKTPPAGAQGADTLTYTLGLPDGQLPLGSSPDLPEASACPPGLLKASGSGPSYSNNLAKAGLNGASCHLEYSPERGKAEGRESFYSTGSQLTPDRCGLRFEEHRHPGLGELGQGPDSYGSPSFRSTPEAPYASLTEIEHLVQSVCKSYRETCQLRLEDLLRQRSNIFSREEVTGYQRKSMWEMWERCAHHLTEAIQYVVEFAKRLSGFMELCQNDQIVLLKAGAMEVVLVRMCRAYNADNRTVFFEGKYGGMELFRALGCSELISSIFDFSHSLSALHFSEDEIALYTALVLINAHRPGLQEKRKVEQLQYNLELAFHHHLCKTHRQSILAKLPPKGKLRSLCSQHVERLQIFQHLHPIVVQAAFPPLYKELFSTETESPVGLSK

[2] = biological target: T2, RORγ ligand binding domain (LBD) (Homo sapiens, UniProt P51449); assay: TR-FRET Activity Assay (ligand sensing, RORγ-LBD / coactivator peptide interaction, LANCE); assay type: biochemical
T2 construct: made in house; host or cells: E. coli BL-21 (BL3), vector pDEST15
T2 sequence (P51449 269-508 limits assumed): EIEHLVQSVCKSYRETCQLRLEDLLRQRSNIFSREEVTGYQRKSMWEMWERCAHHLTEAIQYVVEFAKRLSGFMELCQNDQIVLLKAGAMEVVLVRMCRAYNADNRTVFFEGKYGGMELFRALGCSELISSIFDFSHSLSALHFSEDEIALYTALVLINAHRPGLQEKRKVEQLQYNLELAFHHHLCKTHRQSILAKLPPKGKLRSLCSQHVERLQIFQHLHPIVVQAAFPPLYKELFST

[3] = second value of the cell, Gal4 reporter gene assay in 293T cells, firefly luciferase
[4] = third value of the cell, Gal4 reporter gene assay in 293T cells, renilla normalised luciferase
[5] = first value of the cell FRET/FF/REN, TR-FRET activity assay, read-out: pIC50 (FRET) (converted)

Compound | pIC50 (FF) [1, 3] | pIC50 (REN) [1, 4] | IC50 [2, 5] [nM] | pIC50 (FF) [1] | pIC50 (REN) [1] | IC50 [2] [nM]
Cc1c(C(=O)NC2CCOCC2)cc(-c2cc(C(C)(C)O)cc(C3(C)CC3)c2)n1CC1CCCCC1 [1/43] | 7.1 | 7.1 | 1000 |  |  | 
COC(C)(C)c1cc(-c2cc(C(=O)NC3CCOCC3)c(C)n2CC2CCCCC2)cc(C2(C)CC2)c1 [1/44] |  |  |  | 6.3/7.4/7.3 | 6.3/7.4/7.3 | 501
Cc1c(C(N)=O)cc(-c2ccc(C(O)(C(F)(F)F)C(F)(F)F)cc2)n1CC1CCCCC1 [1/45] | 5.6 | 5.8 | 1000 |  |  | 
COCCNC(=O)c1cc(-c2cc(C(C)(C)C)c(O)c(C(C)(C)C)c2)n(CC2CCCCC2)c1C [1/46] |  |  |  | 6.5/6.5/6.5 | 6.5/6.5/6.5 | 316
Cc1c(C(N)=O)cc(-c2cccc(C(O)(C(F)(F)F)C(F)(F)F)c2)n1CC1CCCCC1 [1/47] | < 4.7 | < 4.7 | 3980 |  |  | 
Cc1c(C(=O)NCC(F)(F)F)cc(-c2cc(C(C)(C)C)c(O)c(C(C)(C)C)c2)n1CC1CCCCC1 [1/48] | 6.4 | 6.4 | 631 |  |  | 
Cc1noc2ccc(-c3cc(C(N)=O)c(C)n3CC3CCCCC3)cc12 [1/49] | 6.2 | 6.6 | 31600 |  |  | 
CCc1cc(-c2cc(C(N)=O)c(C)n2CC2CCCCC2)cc2c1OCC2(C)C [1/50] | 6.0 | 6.1 | 1580 |  |  | 
Cc1c(C(=O)NS(C)(=O)=O)cc(-c2cc(C(C)(C)C)cc(C(C)(C)C)c2)n1CC1CCCCC1 [1/51] | 5.9 | 6.1 | 2510 |  |  | 
Cc1c(C(=O)N2CCOCC2)cc(-c2cc(C(C)(C)C)cc(C(C)(C)C)c2)n1CC1CCCCC1 [1/52] | 6.4 | 6.5 | 158 |  |  | 
Cc1c(C(=O)NC2COC2)cc(-c2cc(C(C)(C)C)cc(C(C)(C)C)c2)n1CC1CCCCC1 [1/53] |  |  |  | 6.8/7.3/7.4 | 6.8/7.3/7.4 | 158
Cc1c(C(=O)NCCO)cc(-c2cc(C(C)(C)C)cc(C(C)(C)C)c2)n1CC1CCCCC1 [1/54] |  |  |  | 6.4/6.3/6.4 | 6.4/6.3/6.4 | 398
Cc1c(C(=O)NCCN(C)C)cc(-c2cc(C(C)(C)C)cc(C(C)(C)C)c2)n1CC1CCCCC1 [1/56] |  |  |  | 5.5/<4.7/<4.7 | 5.5/<4.7/<4.7 | 3160
Cc1c(C(=O)NCC(=O)O)cc(-c2cc(C(C)(C)C)cc(C(C)(C)C)c2)n1CC1CCCCC1 [1/57] | 5.8 | 5.8 | 2510 |  |  | 
Cc1c(C(=O)NC2(CO)CC2)cc(-c2cc(C(C)(C)C)cc(C(C)(C)C)c2)n1CC1CCCCC1 [1/58] |  |  |  | 6.2/6.2/6.2 | 6.2/6.2/6.2 | 631
Cc1c(C(=O)NC[C@@H](C)O)cc(-c2cc(C(C)(C)C)cc(C(C)(C)C)c2)n1CC1CCCCC1 [1/59] | 6.3 | 6.3 | 631 |  |  | 
Cc1c(C(=O)NC[C@H](C)O)cc(-c2cc(C(C)(C)C)cc(C(C)(C)C)c2)n1CC1CCCCC1 [1/60] | 6.2 | 6.2 | 1000 |  |  | 
Cc1c(C(=O)NCCOC(C)C)cc(-c2cc(C(C)(C)C)cc(C(C)(C)C)c2)n1CC1CCCCC1 [1/62] |  |  |  | 6.5/6.4/6.3 | 6.5/6.4/6.3 | 316
Cc1c(C(=O)NCCOCCO)cc(-c2cc(C(C)(C)C)cc(C(C)(C)C)c2)n1CC1CCCCC1 [1/63] |  |  |  | 6.2/6.7/6.7 | 6.2/6.7/6.7 | 631
COCCNC(=O)c1cc(-c2cc(C(C)(C)C)cc(C(C)(C)C)c2)n(CC2CCCCC2)c1C [1/64] | 6.5/6.5/6.5 | 6.5/6.5/6.5 | 316 |  |  | 
Cc1c(C(=O)NCCCO)cc(-c2cc(C(C)(C)C)cc(C(C)(C)C)c2)n1CC1CCCCC1 [1/65] | 6.6 | 6.6 | 398 |  |  | 
Cc1c(C(=O)NCCCCO)cc(-c2cc(C(C)(C)C)cc(C(C)(C)C)c2)n1CC1CCCCC1 [1/66] | 6.7 | 6.8 | 398 |  |  | 
Cc1c(C(=O)NCCCCCO)cc(-c2cc(C(C)(C)C)cc(C(C)(C)C)c2)n1CC1CCCCC1 [1/67] | 7.2 | 7.3 | 158 |  |  | 

Compound | pIC50 (FF) [1, 3] | pIC50 (REN) [1, 4] | IC50 [2, 5] [nM] | pIC50 (FF) [1] | pIC50 (REN) [1] | IC50 [2] [nM]
Cc1c(C(=O)NCCC(=O)O)cc(-c2cc(C(C)(C)C)cc(C(C)(C)C)c2)n1CC1CCCCC1 [1/68] | 6.7 | 6.8 | 1580 |  |  | 
Cc1c(C(=O)NCCCC(=O)O)cc(-c2cc(C(C)(C)C)cc(C(C)(C)C)c2)n1CC1CCCCC1 [1/69] | 6.8 | 6.9 | 1580 |  |  | 
Cc1c(C(=O)NCCN2CCOCC2)cc(-c2cc(C(C)(C)C)cc(C(C)(C)C)c2)n1CC1CCCCC1 [1/70] |  |  |  | 6.2/6.6/6.6 | 6.2/6.6/6.6 | 631
Cc1c(C(=O)NCCCN2CCOCC2)cc(-c2cc(C(C)(C)C)cc(C(C)(C)C)c2)n1CC1CCCCC1 [1/71] | 5.8 | 5.9 | 1260 |  |  | 
Cc1c(C(=O)NCCCCCC(=O)O)cc(-c2cc(C(C)(C)C)cc(C(C)(C)C)c2)n1CC1CCCCC1 [1/72] | 7.1 | 7.1 | 1000 |  |  | 
Cc1c(C(=O)NCCCCC(=O)O)cc(-c2cc(C(C)(C)C)cc(C(C)(C)C)c2)n1CC1CCCCC1 [1/73] | 7.2 | 7.2 | 1260 |  |  | 
Cc1c(C(=O)NCCCCN2CCOCC2)cc(-c2cc(C(C)(C)C)cc(C(C)(C)C)c2)n1CC1CCCCC1 [1/74] |  |  |  | 5.3/<4.7/<4.7 | 5.3/<4.7/<4.7 | 5010
Cc1c(C(=O)NCCCCCN2CCOCC2)cc(-c2cc(C(C)(C)C)cc(C(C)(C)C)c2)n1CC1CCCCC1 [1/75] |  |  |  | 5.31/<4.7<4.7 | 5.31/<4.7<4.7 | 4900
Cc1c(C(=O)NC2COC2)cc(-c2cc(C(C)(C)C)c(F)c(C(C)(C)C)c2)n1CC1CCCCC1 [1/77] | 6.9 | 7.0 | 200 |  |  | 
Cc1c(C(=O)NC2COC2)cc(-c2cc(C(C)(C)C)cc(C(F)(F)F)c2)n1CC1CCCCC1 [1/78] |  |  |  | 6.5/7.1/7.1 | 6.5/7.1/7.1 | 316
Cc1c(C(=O)NC2COC2)cc(-c2cc(C(F)(F)F)cc(C3(C)CC3)c2)n1CC1CCCCC1 [1/79] | 7.2 | 7.2 | 398 |  |  | 
Cc1c(C(=O)NC2COC2)cc(-c2cc(C3(C)CC3)cc(C3(C)CC3)c2)n1CC1CCCCC1 [1/80] | 7.5 | 7.5 | 200 |  |  | 
Cc1c(C(=O)NC2COC2)cc(-c2cc(C(C)(C)C)cc(C3(C)CC3)c2)n1CC1CCCCC1 [1/81] | 7.4 | 7.4 | 200 |  |  | 
Cc1c(C(=O)NCCCCCO)cc(-c2cc(C(C)(C)C)cc(C3(C)CC3)c2)n1CC1CCCCC1 [1/82] |  |  |  | 6.8/7.4/7.4 | 6.8/7.4/7.4 | 158
Cc1c(C(=O)NC2CC2)cc(-c2cc(C(C)(C)C)cc(C3(C)CC3)c2)n1CC1CCCCC1 [1/83] | 6.9 | 7.0 | 316 |  |  | 
Cc1c(C(=O)NC2CCOCC2)cc(-c2cc(C(C)(C)C)cc(C3(C)CC3)c2)n1CC1CCCCC1 [1/84] |  |  |  | 6.8/7.6/7.6 | 6.8/7.6/7.6 | 158
Cc1c(C(=O)NCC(C)(C)C(N)=O)cc(-c2cc(C(C)(C)C)cc(C3(C)CC3)c2)n1CC1CCCCC1 [1/85] | 7.7 | 7.7 | 316 |  |  | 
Cc1c(C(=O)NCC2(C)COC2)cc(-c2cc(C(C)(C)C)cc(C3(C)CC3)c2)n1CC1CCCCC1 [1/86] | 7.6 | 7.6 | 158 |  |  | 
Cc1c(C(=O)NCC(C)(C)O)cc(-c2cc(C(C)(C)C)cc(C3(C)CC3)c2)n1CC1CCCCC1 [1/87] |  |  |  | 6.5/7.2/7.2 | 6.5/7.2/7.2 | 316
Cc1c(C(=O)NCCN2CCOCC2)cc(-c2cc(C(C)(C)C)cc(C3(C)CC3)c2)n1CC1CCCCC1 [1/88] |  |  |  | 6.4/6.5/6.5 | 6.4/6.5/6.5 | 398
Cc1c(C(N)=O)cc(-c2cc(C(C)(C)C)cc(C3(C)CC3)c2)n1CC1CCCCC1 [1/89] | 6.3 | 6.2 | 251 |  |  | 
Cc1c(C(=O)NCCC(=O)O)cc(-c2cc(C(C)(C)C)c3c(c2)C2(CCO3)CC2)n1CC1CCCCC1 [1/90] | 7.0 | 6.9 | 2000 |  |  | 
